Data taken from ChEMBL document CHEMBL3826911, “Rational design and synthesis of novel anti-prostate cancer agents bearing a 3,5-bis-trifluoromethylphenyl moiety” (Bioorg Med Chem Lett, 2016).

Assays:
[1] = molecular target: T1, Androgen receptor (Homo sapiens) (UniProt P10275); conditions: GripTite-293, at 10 µM
T1 sequence (whole entry): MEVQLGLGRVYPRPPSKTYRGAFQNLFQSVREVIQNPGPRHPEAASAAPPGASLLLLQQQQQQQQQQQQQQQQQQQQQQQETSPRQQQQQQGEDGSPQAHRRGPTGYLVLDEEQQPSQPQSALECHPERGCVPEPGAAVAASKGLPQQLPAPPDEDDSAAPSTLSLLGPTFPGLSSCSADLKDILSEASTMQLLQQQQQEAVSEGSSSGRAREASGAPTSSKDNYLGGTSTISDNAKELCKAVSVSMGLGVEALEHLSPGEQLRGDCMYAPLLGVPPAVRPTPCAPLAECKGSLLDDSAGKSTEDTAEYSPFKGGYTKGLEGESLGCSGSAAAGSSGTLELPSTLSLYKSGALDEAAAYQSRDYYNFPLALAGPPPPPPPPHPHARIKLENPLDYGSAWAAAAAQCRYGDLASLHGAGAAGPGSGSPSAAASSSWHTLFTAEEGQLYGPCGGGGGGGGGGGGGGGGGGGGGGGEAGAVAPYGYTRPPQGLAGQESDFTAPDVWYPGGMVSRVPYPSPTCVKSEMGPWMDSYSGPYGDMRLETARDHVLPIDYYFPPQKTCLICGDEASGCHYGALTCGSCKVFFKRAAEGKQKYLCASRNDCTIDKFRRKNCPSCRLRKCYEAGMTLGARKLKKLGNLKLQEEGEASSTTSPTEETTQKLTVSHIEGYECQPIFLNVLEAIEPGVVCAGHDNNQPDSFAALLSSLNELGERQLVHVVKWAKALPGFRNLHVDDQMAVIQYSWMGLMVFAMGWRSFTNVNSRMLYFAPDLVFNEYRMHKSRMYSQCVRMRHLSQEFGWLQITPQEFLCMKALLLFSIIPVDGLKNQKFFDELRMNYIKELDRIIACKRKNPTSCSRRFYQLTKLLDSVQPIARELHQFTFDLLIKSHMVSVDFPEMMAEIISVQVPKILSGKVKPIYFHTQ

[2] = Antiproliferative activity against human DU145 cells assessed as reduction in cell viability after 96 hrs by propidium iodide staining based fluorescence assay; type: functional, DU-145; conditions: Homo sapiens, DU-145, 96 h; read-out: IC50
[3] = Antiproliferative activity against human VCaP cells assessed as reduction in cell viability after 96 hrs by propidium iodide staining based fluorescence assay; type: functional; conditions: Homo sapiens, VCaP, 96 h; read-out: IC50
LNCaP = experiment: Antiproliferative activity against human LNCAP cells assessed as reduction in cell viability after 96 hrs by propidium iodide staining based fluorescence assay; type: functional; conditions: Homo sapiens, LNCaP, 96 h; read-out: IC50
Androgen receptor = molecular target: T2, Androgen receptor (Homo sapiens, UniProt P10275); type: cell-based, GripTite-293
T2 sequence (P10275 whole entry): T1 sequence (whole entry)
Description: Antagonist activity at GAL4 DBD-fused androgen receptor LBD (unknown origin) transfected in UAS-bla GripTite 293 cells assessed as inhibition of R1881-induced receptor activation after 16 to 24 hrs by beta-lactamase reporter gene assay

HepG2 = experiment: Cytotoxicity against human HepG2 cells assessed as cell viability after 72 hrs by MTT assay; type: functional, cell-based
CWR22R = experiment: Antiproliferative activity against human 22Rv1 cells assessed as reduction in cell viability after 96 hrs by propidium iodide staining based fluorescence assay; type: functional; conditions: Homo sapiens, 22Rv1, 96 h; read-out: IC50
[4] = Half life in human liver microsomes at 3 uM in presence of NADPH by LC-MS/MS analysis; type: ADME
[5] = Protein binding in human plasma by equilibrium dialysis method; type: ADME, cell-free; conditions: read-out: PPB (converted)
Liver microsome = experiment: Metabolic stability in human liver microsomes at 3 uM in presence of NADPH by LC-MS/MS analysis; type: ADME
Albumin = Albumin (Homo sapiens, UniProt P02768); experiment: Binding affinity to human serum albumin at 5 uM by equilibrium dialysis based LC-MS/MS analysis; type: ADME; conditions: read-out: PB (converted)
hERG (KCNH2) = hERG (KCNH2) (Homo sapiens, UniProt Q12809); experiment: Inhibition of human ERG transfected in CHO cells assessed as blockade of tail current at 25 uM by patch clamp assay; type: cell-based; conditions: CHO cells transfected with human ERG
[6] = Intrinsic clearance in human liver microsomes assessed per mg of protein at 3 uM in presence of NADPH by LC-MS/MS analysis; type: ADME; conditions: read-out: CLH

hERG (KCNH2), sequence (Q12809 whole entry): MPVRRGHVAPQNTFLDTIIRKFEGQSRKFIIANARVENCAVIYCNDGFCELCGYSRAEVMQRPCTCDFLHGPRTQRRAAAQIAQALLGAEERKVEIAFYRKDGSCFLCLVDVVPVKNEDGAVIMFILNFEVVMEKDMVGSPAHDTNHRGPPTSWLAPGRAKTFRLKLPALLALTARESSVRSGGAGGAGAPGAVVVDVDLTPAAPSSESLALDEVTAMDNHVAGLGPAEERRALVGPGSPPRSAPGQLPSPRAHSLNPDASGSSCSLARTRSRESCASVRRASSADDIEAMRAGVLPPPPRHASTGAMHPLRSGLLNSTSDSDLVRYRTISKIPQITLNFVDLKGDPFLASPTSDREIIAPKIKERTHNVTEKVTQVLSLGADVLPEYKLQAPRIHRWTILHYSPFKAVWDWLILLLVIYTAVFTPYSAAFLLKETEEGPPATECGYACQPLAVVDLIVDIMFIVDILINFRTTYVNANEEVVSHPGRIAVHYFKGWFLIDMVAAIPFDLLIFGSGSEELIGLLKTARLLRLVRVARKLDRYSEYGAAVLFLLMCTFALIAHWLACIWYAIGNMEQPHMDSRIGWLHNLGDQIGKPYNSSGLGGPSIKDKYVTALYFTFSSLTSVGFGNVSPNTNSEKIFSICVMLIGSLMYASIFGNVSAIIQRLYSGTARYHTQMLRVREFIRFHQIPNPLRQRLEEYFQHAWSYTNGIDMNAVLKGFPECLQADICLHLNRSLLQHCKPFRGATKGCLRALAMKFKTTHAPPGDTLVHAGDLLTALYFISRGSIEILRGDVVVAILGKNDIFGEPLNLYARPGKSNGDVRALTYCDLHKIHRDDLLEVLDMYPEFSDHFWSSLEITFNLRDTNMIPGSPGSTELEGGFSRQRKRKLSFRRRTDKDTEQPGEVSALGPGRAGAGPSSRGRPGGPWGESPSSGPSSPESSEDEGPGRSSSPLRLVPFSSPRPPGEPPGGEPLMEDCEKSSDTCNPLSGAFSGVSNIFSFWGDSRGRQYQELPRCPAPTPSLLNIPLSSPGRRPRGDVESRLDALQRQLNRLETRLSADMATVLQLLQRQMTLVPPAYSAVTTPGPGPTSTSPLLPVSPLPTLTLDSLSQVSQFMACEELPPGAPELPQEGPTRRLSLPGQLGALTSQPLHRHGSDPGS
Albumin, sequence (P02768 whole entry): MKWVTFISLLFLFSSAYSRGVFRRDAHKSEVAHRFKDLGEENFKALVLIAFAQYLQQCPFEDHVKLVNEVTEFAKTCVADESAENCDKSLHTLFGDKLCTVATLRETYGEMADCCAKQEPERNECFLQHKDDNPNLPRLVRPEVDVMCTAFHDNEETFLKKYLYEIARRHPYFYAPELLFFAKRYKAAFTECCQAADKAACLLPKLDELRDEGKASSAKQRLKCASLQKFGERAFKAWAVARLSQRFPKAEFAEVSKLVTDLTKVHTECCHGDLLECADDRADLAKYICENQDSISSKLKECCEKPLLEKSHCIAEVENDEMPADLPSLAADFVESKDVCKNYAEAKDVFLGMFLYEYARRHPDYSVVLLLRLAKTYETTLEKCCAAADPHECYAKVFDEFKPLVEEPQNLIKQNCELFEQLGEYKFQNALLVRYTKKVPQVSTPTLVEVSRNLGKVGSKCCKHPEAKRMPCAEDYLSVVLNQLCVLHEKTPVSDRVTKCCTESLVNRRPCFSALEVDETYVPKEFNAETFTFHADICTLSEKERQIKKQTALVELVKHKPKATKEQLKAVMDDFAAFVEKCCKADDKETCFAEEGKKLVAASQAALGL

SMILES	inhibition [1] [%]	IC50 [2] [µM]	IC50 [3] [µM]	IC50 (LNCaP) [µM]	IC50 (Androgen receptor) [µM]	Activity (HepG2)	IC50 (CWR22R) [µM]	half-life at 3 µM [4] [h]	AC50 (HepG2; HepG2, 72 h) [µM]	minimal effective concentration (HepG2; HepG2, 72 h, read-out: MEC) [µM]	fraction unbound [5]	Stability (Liver microsome)	fraction unbound at 5 µM (Albumin)	inhibition at 25 µM (hERG (KCNH2)) [%]	microsomal CLint at 3 µM [6] [µL/min/mg]
CC(O)(CSc1cc(C(F)(F)F)cc(C(F)(F)F)c1)C(=O)Nc1ccc([N+](=O)[O-])c(C(F)(F)F)c1 (configuration not stated)	90	2.78	1.53	1.5	0.71	Dose-dependent effect	1.5	–	–	–	–	–	–	–	–
CC(O)(CS(=O)(=O)c1cc(C(F)(F)F)cc(C(F)(F)F)c1)C(=O)Nc1ccc([N+](=O)[O-])c(C(F)(F)F)c1 (configuration not stated)	93	5.26	3.3	2.1	3.1	–	2.15	9.45	9.01	3.6	–	–	–	–	–
C[C@](O)(CS(=O)(=O)c1ccc(F)cc1)C(=O)Nc1ccc(C#N)c(C(F)(F)F)c1 [(R)-BICALUTAMIDE]	–	45.4	51.6	–	–	–	46.2	3.57	54.3	–	0.04	–	–	–	–
C[C@](O)(CS(=O)(=O)c1cc(C(F)(F)F)cc(C(F)(F)F)c1)C(=O)Nc1ccc(C#N)c(C(F)(F)F)c1	–	6.36	4.11	1.99	–	Dose-dependent effect	2.5	–	–	–	–	Stable	0.001	29.3	–
COc1ccc2c(c1)[C@]13CCCC[C@@H]1[C@H](C2)N(C)CC3 [DEXTROMETHORPHAN]	–	–	–	–	–	–	–	1.05	–	–	–	–	–	–	21.9
